According to patent publication US5246956A, “N-imidazolyl derivatives of substituted alkoxyimino tetrahydronaphthalenes and chromans having antithromboxane A2 activity” (Farmitalia Carlo Erba S.r.l., priority 1991, dated 1993):
pIC50: −log10 of the molar value. Read-outs that look alike come from different tables or passages of the source.

How the values were obtained:
TxB2 synthesis = TxB2 synthesis inhibition in vitro, in whole blood of normal rats; format: cell-based, rat (Sprague Dawley)
Description: (§1) The effects of a representative group of compounds of the invention were evaluated, in comparison with known compounds, on TxB2 synthesis inhibition in vitro, in whole blood of normal rates, and on TxA2 antagonism in a binding assay in washed human platelets.
TxB2 synthesis inhibition
Blood was withdrawn from the abdominal aorta of normal Sprague Dawley rats (Charles River Italy) under light ether anaesthesia. The blood was immediately divided in portions of 0.5 ml and distributed in glass tubes each containing a concentration of the test compound, or of the reference compounds.
Samples were then allowed to clot for 1 hour at 37° C., centrifuged at 3000 rpm for 10 min, and serum collected and stored at -20° C. until assayed.

[1] = molecular target: T1, TXA2 receptor (washed human platelets) (Homo sapiens, UniProt P21731); experiment: Displacement of [^3 H]-SQ 29,548 binding to washed human platelets (TxA2 antagonism)
T1 construct: endogenous in cells; host or cells: washed human platelets from healthy volunteers
T1 sequence (P21731 1-343): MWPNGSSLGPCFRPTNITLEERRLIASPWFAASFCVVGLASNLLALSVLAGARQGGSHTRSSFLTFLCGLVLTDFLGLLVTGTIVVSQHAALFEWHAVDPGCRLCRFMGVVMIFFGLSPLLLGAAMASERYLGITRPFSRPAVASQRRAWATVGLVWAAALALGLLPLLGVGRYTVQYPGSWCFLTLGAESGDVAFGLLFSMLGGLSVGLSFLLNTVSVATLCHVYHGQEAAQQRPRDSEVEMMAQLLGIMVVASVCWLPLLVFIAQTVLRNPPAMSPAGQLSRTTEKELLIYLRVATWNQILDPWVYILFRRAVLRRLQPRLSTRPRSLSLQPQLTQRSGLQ
Description: as §1
Displacement of [^3 H]--SO 29,548 binding to washed human platelets.
Blood from healthy volunteers of both sexes who had not taken any medication for at least 10 days was collected into one-tenth volume of acid citrate dextrose containing indomethacin (28 μM). Platelet rich plasma (PRP), obtained by centrifugation of the blood at 200 xg for 20 min. was washed twic (1000 xg for 10 min). The platelets are then resuspended in Tyrode-Hepes buffer (pH 7.4) to a final concentration of […] and incubated for 0-60 min at 25° with [^3 H]--SQ 29,548 (5 nM). For displacement experiments various concentrations (10^-9 -10^-4 M) of competing ligands were added and incubated for 30 min at 25° C. […] After the incubation, 4 ml of ice-cold TRIS-HC1 buffer (10 mM, pH 7.4) was added to each tube and the reaction mixture was immediately filtered by suction through a Whatman GF/C glass filter disc which was washed 2 times with ice-cold TRIS-CH1 (4 ml) and counted for radioactivity by a Packard β-counter.
The binding data were analysed by computerized non-linear curve fitting using the Ligand program and expressed as ID50.

[2] = Table 3, rat whole blood, read-out: TxB2 synthesis IC50
[3] = Rattus norvegicus, Table 2, whole blood of normal rats, 1 hour at 37° C., read-out: In vitro effect on TxB2 synthesis in normal rats, IC50 (whole blood)

Question: What does the source list for `COc1ccc2c(c1)/C(=N/OCCCCC(=O)O)C(n1ccnc1)C(c1ccc(OC)c(OC)c1)O2` (racemic) [FCE 26603, (+-)-(Z)-5-[[2-(3,4-dimethoxyphenyl)-3-(1H-imidazol-1-yl)-2,3-dihydro-6-methoxy-4H-1-benzopyranylidene]aminoxy]pentanoic acid]?
Answer: pIC50 (TxB2 synthesis; [2]): 6.70; pIC50 ([1]; Table 3, washed human platelets, read-out: ^3 H-SQ 29548 binding displacement IC50): 7.00

Question: How did the pIC50 ([1]; Table 1, washed human platelets, 30 min at 25° C., read-out: ^3 H SQ 29548 binding displacement (washed human platelet) IC50) turn out when `O=C(O)CCCCCO/N=C1/c2ccccc2OC(c2ccccc2)C1n1ccnc1` (racemic) [FCE 27016, (+-)-(Z)-6-[[2-phenyl-3-(1H-imidazol-1-yl)-2,3-dihydro-4H-benzopyranylidene]aminoxy]hexanoic acid] was run?
Answer: The pIC50 was 7.48.

Question: And the TxA2 antagonism ([1]; platelets, in words)?
Answer: The TxA2 antagonism was “patent TxA2 antagonist”.

Question: And the “affinity for the receptor compared with BM 13505 and BM 13177” value ([1]; washed human platelets, in words)?
Answer: The value was “greater than those of compounds BM 13505 and BM 13177”.

Question: `CC(=O)Oc1ccccc1C(=O)O` [ASA, acetylsalicilic acid] was tested. Which pIC50 (TxB2 synthesis; Rattus norvegicus, 1 h, read-out: In vitro effect on TxB2 synthesis in normal rats, IC50 (whole blood)) did it give?
Answer: The pIC50 was 4.51.

Question: Which “TxB2 synthesis IC50” value (TxB2 synthesis; Table 3, rat whole blood) does the source give for `O=C(O)COc1ccc(CCNS(=O)(=O)c2ccccc2)cc1` [BM 13177] here?
Answer: Its value is “inactive”.

Question: Which “TxB2 synthesis IC50” value (TxB2 synthesis; Table 3, rat whole blood) does the source give for `O=C(O)Cc1ccc(CCNS(=O)(=O)c2ccc(Cl)cc2)cc1` [BM 13505] here?
Answer: Its value is “inactive”.

Question: How did the pIC50 (TxB2 synthesis; [3]) turn out when `O=C(O)c1ccc(OCCn2ccnc2)cc1` [Dazoxiben] was run?
Answer: Its pIC50 is 5.92.

Question: And the pIC50 (TxB2 synthesis; [2])?
Answer: The pIC50 was 5.92.

Question: What about the “^3 H-SQ 29548 binding displacement IC50” value ([1]; Table 3, washed human platelets) of the same compound?
Answer: Its value is “inactive”.

Question: What does the source list for `CC1Oc2ccccc2/C(=N/OCCCCC(=O)O)C1n1ccnc1` (stereo not shown) [FCE 26365, 5-[[2-methyl-3-(1H-imidazol-1-yl)-2,3-dihydro-4H-1-benzopyranylidene]aminoxy]pentanoic acid]?
Answer: pIC50 (TxB2 synthesis; [3]): 7.57; inhibition of platelet TxA2 synthase (TxB2 synthesis; in words): potent inhibitor of platelet TxA2 synthase
